This is an account of results in patent US20110142866A1, “PEPTIDE ANALOGUES AND CONJUGATES THEREOF” (Eldrug S.A., priority 2007, published 2011).

The subject of experiment [1] is IL-4 secretion by T cells. Kind of experiment: IL-4 ELISpot of spleen cells from immunized mice. It counts as in vivo, SJL/J mice. Here is the method:
(§1) Female 6-8 week old SJL/J mice used in all experiments, were purchased from Walter and Eliza Hall Institute (VIC Australia) and housed at the Biological Research Laboratory at Burnet Institute at Austin, Heidelberg, Australia. SJL/J mice were immunized twice on days 0, 14 intradermally (base of tail) with 50 μg MBP83-99 peptide analogue-KLH-reduced mannan.
(§2) ELISpot analyses specific T cell responses to antigens by detecting the secretion of specific cytokines. Spleen cells from immunized SJL/J mice were isolated 14 days after immunization and assessed by ELISpot for IFN-γ, IL-4 or IL-10 secretion by T cells. IFN-γ ELISpot assay was performed on MultiScreen-IP Filter Plate (MAIP S4510) with hydrophobic PVDF filters (Millipore, UK) while IL-4 and IL-10 ELISpot was performed on MultiScreen-HA Filter Plate (MAHA S4510) with mixed cellulose esters filters (Millipore, UK). MAIP S4510 plates were pre-wet with 50 μl of 70% ethanol, washed 5 times with 200 μl sterile PBS and coated with 70 μl of 5 μg/ml anti-IFN-γ capture antibody, AN18 (Mabtech, Australia) in PBS and left to incubate at 4° C. O/N. While 70 μl of 5 μg/ml anti-IL-4 and anti-IL-10 capture antibody (Mabtech, Australia) was added directly to MAHA S4510 plates and incubated at 4° C. O/N without 70% ethanol treatment. Following 5 washes with PBS, plates were blocked by adding 200 μl of culture media (supplemented with 2.5% FCS) and incubated for 2 hours at 37° C. The blocking media was discarded and 10 μg/ml recall peptides (MBP83-99 peptide analogues not conjugated to KLH-reduced mannan) were added into each defined well. Con A (1.0 μg/ml; IL-4 and IFN-γ) or LPS (1.0 μg/ml; IL-10) were used as an internal positive controls and no peptide was used as negative control. Triplicate wells were set up for each condition. 5×10^5 spleen cells in 100 μl culture media were seeded into each well and incubated for 18 hours for IFN-γ, 24 hours for IL-4 and 48 hours for IL-10 at 37° C. Plates were washed 5 times PBS/0.05% Tween 20 and 5 times PBS and incubated for 2 hours at RT with anti-murine IFN-γ, IL-4 or IL-10 monoclonal antibody-biotin. Plates were washed and streptavidin-ALP was added at 1.0 μg/ml and incubated for 2.0 hours at RT. Spots of activity were detected using a colorimetric AP kit (Biorad, Hercules, Calif. USA) and counted using an AID ELISpot plate reader (Autoimmun Diagnostika GmbH, Germany). Data are presented as mean spot forming units (sfu) per 0.5×10^6 cells +/−standard error of the mean (SEM).
(§3) MBP87-99, [R^91, A^96]MBP87-99 or [A^91, A^96]MBP87-99 peptides were dissolved in PBS and emulsified in an equal volume of complete Freund's adjuvant (CFA) which contained 1.0 mg/ml of heat killed Mycobacterium tuberculosis H37RA (Sigma, Victoria, Australia). SJL/J mice were given one subcutaneous injection containing 50 μg peptide into the base of tail.
(§4) SJL/J mice were immunized twice on days 0 and 14 intradermally (base of tail) with 50 μg MBP87-99-KLH-reduced mannan, [R^91, A^96]MBP87-99-KLH-reduced mannan or [A^91, A^96]MBP87-99-KLH-reduced mannan conjugates.
(§5) ELISpot detects specific T cell responses to antigens by measuring the secretion of specific cytokines from individual cells. Spleen cells from immunized SJL/J mice were isolated 28 days after CFA immunization or 14 days after the last immunization with reduced mannan-peptides and assessed by ELISpot for IFN-γ and IL-4 secretion by T cells. IFN-γ ELISpot assay was performed on MultiScreen-IP Filter Plate (MAIP S4510) with hydrophobic PVDF filters (Millipore, UK), while IL-4 ELISpot assays were performed on MultiScreen-HA Filter Plate (MAHA S4510) with mixed cellulose esters filters (Millipore, UK). MAIP S4510 plates were pre-weted with 50 μl of 70% ethanol, washed 5 times with 200 μl of sterile phosphate-buffered saline (PBS) and coated with 70 μl of 5 μg/ml anti-IFN-γ capture antibody, AN18 (Mabtech, Australia) in PBS and incubated O/N at 4° C. […]

Experiment [2] concerns respective peptides conjugated to BSA or KLH. Kind of experiment: ELISA total IgG antibody responses to the respective peptide. It counts as in vivo, SJL/J mice. As for the experimental part:
(§6) Blood was collected and sera isolated from mice prior to and 4 weeks after immunization with CFA or 14 days after the last immunization with reduced mannan conjugates. MBP87-99 or [A^91, A^96]MBP87-99 peptides conjugated to BSA or KLH were coated onto polyvinyl chloride (PVC) microtiter plates at 10 μg/ml in 0.2 M NaHCO3 buffer, pH 9.6, 0/N at 4° C. Non-specific binding was blocked with 2% BSA for 1.0 h at RT. After washing (0.05 Tween 20/PBS), serial dilutions of sera were added and incubated for a further 2 h at RT. The plates were washed and bound antibody was detected using HRP-conjugated sheep anti-mouse antibody (1/1000 dilution in PBS) (Amersham, UK) and developed using 2,2′-azino-di(3-ethylbenzthiazoline)6-sulfonic acid (ABTS) (Sigma, UK). Absorbance at 405 nm was recorded using a Fluostar Optima microplate reader (BMG labtech, Offenburg, Germany).
(§7) ELISpot assays for IFN-γ and IL-4 secretion by T cells and ELISA assays for binding of sera to native MBP protein or peptide were carried out as previously described^3, 4, 20, 21. Mean values were compared using the Student's two-tailed t-test. P value threshold of p<0.01 indicates a statistically significant difference.
On the technique in general: ELISA stands for enzyme-linked immunosorbent assay.

Experiment [3] concerns IFN-γ secretion by T cells. Put plainly: IFN-γ ELISpot of spleen cells from immunized mice. Particulars: for cross-reaction of IFN-γ producing T cells with native MBP87-99 peptide: recall peptide native MBP87-99. The format is in vivo, SJL/J mice. As for the experimental part: as §1, §2, §3, §4, §5
In experiment [4] the test system is native MBP87-99 peptide. Kind of experiment: ELISA cross reaction of sera with native MBP87-99 peptide. The format is in vivo. Particulars: 1/500 and 1/1,000 sera dilutions. As for the experimental part:
as §6, §7

For experiment [5], the system named is MBP72-85 induced EAE. Kind of experiment: Induction-inhibition of MBP-EAE in Lewis rats. The format is in vivo. Particulars: co-injection (500 μg) with MBP72-85 (25 μg).
The mark [6] stands for this setting: 50 μg peptide conjugated to reduced mannan, two intradermal injections, spleen cells 14 days post-immunization.
[7] abbreviates: 50 μg peptide emulsified in CFA, one injection, spleen cells 28 days.
[8] abbreviates: peptide conjugated to reduced mannan.

Entries after “also recorded” stand apart in the source; their conditions may differ. Positions of bridges follow the written chain, without caps; N, C: chain ends. No end group written: not given here.

On to “cyclo, head-to-tail, VHFFANIVTARTP (VHFFXNIVTXRTP; cyclised or stapled) [cyclo(87-99)[A^91, A^96]MBP87-99]”, for which the “IL-4 secreting T cells (in words)” value in experiment [1] (setting [6]) and in experiment [1] (setting [7]) was “moderate levels” throughout. Besides, the “IgG antibody responses (in words)” value is recorded as “higher levels” in experiment [2] (setting [8]) and “no IgG antibodies” in experiment [2] (peptide emulsified in CFA). Besides, the “IFN-γ secreting T cells (in words)” value in experiment [3] (setting [6]) and in experiment [3] (setting [7]) was “reduce IFN-γ production” throughout. The “decrease of IFN-γ compared to linear MBP87-99 conjugated to reduced mannan” value in experiment [3] (setting [8]) is roughly 50%. Also, the “decrease of IFN-γ compared to linear MBP87-99 emulsified in CFA” value in experiment [3] (setting [8]) is listed as roughly 70%. Besides, the “decrease of IFN-γ compared to the same peptide emulsified in CFA” value in experiment [3] (setting [8]) is roughly 50%. The “cross-reaction of IFN-γ producing T cells with native MBP87-99 peptide” value in experiment [3] (setting [8]) and in experiment [3] (peptide emulsified in CFA) was “did not cross-react” each time. Also, the “cross-reaction of antibodies with native MBP87-99 peptide” value in experiment [4] (setting [8]) and in experiment [4] (peptide emulsified in CFA) was “did not react” each time.
Regarding VHFFRNIVTARTP [[R^91, A^96]MBP87-99], the “IL-4 secreting T cells (in words)” value in experiment [1] (setting [6]) was “very high”; in experiment [1] (setting [7]), “low levels”. For the same substance, the “decrease of IFN-γ relative to native MBP87-99” value in experiment [3] (setting [8]) turned out to be 70%; in experiment [3] (peptide emulsified in CFA) it was 30%. Besides, the “inhibition of EAE” value is “completely prevented the development of EAE” in experiment [5] (listed as [Arg^91, Ala^96]MBP87-99) and “completely prevented the induction of EAE” in experiment [5] (listed as [Arg^91,Ala^96]MBP87-99).
With “Val^87-His-Phe-Phe-Arg^91-Asn-Ile-Val-Thr-Ala^96-Arg-Thr-Pro^99 [cyclo(87-99)[Arg^91, Ala^96] MBP87-99]”, the “inhibition of EAE” value was “strong inhibitor of EAE” in experiment [5] and “completely prevented the induction of EAE” in experiment [5] (listed as cyclo(87-99)[Arg^91,Ala^96]MBP87-99).
Take “VHFFKNIVTPRTP [MBP87-99, reference compound]”: the “IL-4 secreting T cells (in words)” value in experiment [1] (setting [6]) and in experiment [1] (setting [7]) was “did not induce; also recorded: No detectable” throughout. Besides, the “IgG antibody responses (in words)” value was “higher levels” in experiment [2] (setting [8]); “very low levels and Low” in experiment [2] (peptide emulsified in CFA). For the same substance, the “IFN-γ secreting T cells (in words)” value in experiment [3] (setting [6]) and in experiment [3] (setting [7]) was “high levels” each time.
As to “Val-His-Phe-Phe-Lys^91-Asn-Ile-Val-Thr-Ala^96-Arg-Thr-Pro^99 (VHFFKNIVTARTP; lactam 5-C) [cyclo(91-99)[Ala^96] MBP87-99]”, the “inhibition of EAE” value in experiment [5] is “low inhibitory activity”.
Turning to VHFFANIVTARTP [[A^91, A^96]MBP87-99], the “IL-4 secreting T cells (in words)” value in experiment [1] (setting [6]) and in experiment [1] (setting [7]) was “high levels” in each case. For the same substance, the “IgG antibody responses (in words)” value in experiment [2] (peptide emulsified in CFA) is reported as “No IgG antibody levels”. Moreover, the “IFN-γ secreting T cells (in words)” value was “no IFN-γ was detected” in experiment [3] (setting [6]) and “strong levels” in experiment [3] (setting [7]). Moreover, the “cross-reaction of IFN-γ producing T cells with native MBP87-99 peptide” value in experiment [3] (setting [8]) and in experiment [3] (peptide emulsified in CFA) was “did not cross-react” each time. Also, the “cross-reaction of antibodies with native MBP87-99 peptide” value in experiment [4] (setting [8]) and in experiment [4] (peptide emulsified in CFA) was “did not cross-react” throughout.
